Assay results: publication PMC8287944, “5-Fluorouracil blocks quorum-sensing of biofilm-embedded methicillin-resistant Staphylococcus aureus in mice” (Nucleic Acids Research, 2021)

What was measured:
[1] = test system: MRSA ATCC 43300; experiment: Adherent MRSA quantification (CFU plating); format: cell-based, Staphylococcus aureus; conditions: 0.1 μM 5-FU, 24 h
Method: To quantify the amount of adherent bacteria, 2 – 3 × 10^5 CFU/ml MRSA were grown for 24 h in the presence of different 5-FU concentrations. After incubation under static conditions at 37°C, the plate was washed twice with PBS. Adherent bacteria were removed with 100 μl PBS and appropriate dilutions were plated on Mueller-Hinton agar (Becton Dickinson AG, Allschwil, Switzerland) plates overnight at 37°C. Three independent experiments were performed, each performed in triplicate, and the mean values were calculated. Dimethyl sulfoxide (DMSO) was used as a control.
Figure 4. Bioactivity of 5-FU against MRSA ATCC 43300. (A) Quorum sensing-associated AI-2 activity of MRSA 43300 grown for 3 h with different 5-FU concentrations. (B) Effect of different 5-FU concentrations on MRSA 43300 growth. (C) Interference with biofilm formation. (D) Effect on adherent MRSA 43300. Data points represent three biological replicates expressed as mean ± SD (**P < 0.01; ***P < 0.001; ****P < 0.0001).

[2] = test system: SE 1457 wild type; experiment: AI-2 activity of SE 1457 wild type; format: cell-based, Staphylococcus epidermidis; conditions: 3 h, increasing 5-FU concentrations
Method: To confirm that the phenotype could be restored, 1 μM synthetic (S)-4,5-dihydroxy-2,3-pentanedione (DPD) (Biosynth Carbosynth, Staad, Switzerland) was used. After 3 h under static conditions at 37°C, the supernatant was analysed for AI-2 activity with V. harveyi (MM32).
Supplementary Figure 4 | Bioactivity of 5-FU against Staphylococcus epidermidis (SE). a) Quorum-sensing-associated AI-2 activity of SE 1457 grown for 3 h in the presence of different 5-FU concentrations (note log scale). b) Reversing effect of 1 µM DPD on the AI-2-reducing action of 5-FU (dashed line indicates AI-2 baseline of SE 1457 without 5-FU). Values represent 3 biological replicates expressed as mean ± SD (*, p < 0.05; **, p < 0.01).

[3] = test system: V. harveyi (BB170); experiment: V. harveyi BB170 bioluminescence (5 h); format: cell-based, Vibrio harveyi; conditions: V. harveyi BB170, 5 h
Method: The test strain V. harveyi BB170 was grown overnight in Luria Marine (LM)-medium ([25]). The culture was 1:500 diluted in AB-medium (0.3 M NaCl, 10 mM potassium phosphate, 1 mM L-arginine, […], 1% glycerol) the next day, and then challenged with various chemical compounds. After 5 h of shaking at 200 rpm at 30°C, the bioluminescence of BB170 was quantified on a GENios Pro plate reader (Tecan, Männedorf, Switzerland).
Figure 3. Bioactivity of hit candidates against Vibrio harveyi. Effect on bacterial growth. V. harveyi (BB170) was grown in the presence of individual compounds (A–H) for 5 h and the bioluminescence (green circles) was quantified. After a total of 24 h, bacterial growth (+) was evaluated by measuring the optical density (OD600). The gray translucent background in (C) represents the narrow range within which the compound reduces bioluminescence without affecting growth.

[4] = test system: HEK-293AI2 cells; format: cell-based, human; conditions: human, 5 µM
Method: To monitor viable cells with active metabolism, we employed a fast resazurin assay. […] To calculate the relative cell viability, the fluorescence of DMSO-treated cells was set to 100%.
Figure 2. Cell-based primary screen for AI-2 biosynthesis inhibitors. (A) Detailed assay protocol of the primary screen using engineered mammalian cells to identify inhibitors of quorum sensing. […] Aliquots of 10 μl of culture supernatants were transferred to black-bottomed assay plates and mixed with 40 μl of V. harveyi MM32 (AI-2 biosensor). AI-2-induced bioluminescence was measured 4 h later and normalized against the controls. In a secondary screen, the dose-response relationships of hit compounds are analyzed. To simultaneously assess effects on cell viability, compound-treated cells were supplemented with PrestoBlue and incubated for 1 h prior to resorufin fluorescence quantification. (B) Z’-evaluation of the AI-2 inhibitor assay. […] Bioactivity and viability are calculated as percentages, based on the positive control value (taken as 100%) and negative control value (taken as 0%). […] Data points in (C) represent means of biological duplicates.

O=c1[nH]cc(F)c(=O)[nH]1 [5-Fluorouracil]
Number of adherent MRSA [1]: reduced the number of adherent MRSA
AI-2 activity of SE 1457 [2]: reduced AI-2 activity dose-dependently
Effect on V. harveyi bioluminescence [3]: reduced the bioluminescence
Viability of Ctrl (%) [4]: 1.53%
